Values of other authors in patent US8263564B2, “Iron-carbohydrate complex compounds” (Vifor (International) AG, priority 2007, dated 2012).

System: mice
Conditions: intravenously on mice; Berenbaum et al. 1960 cited in Geisser et al. 1992

Compound: O=S(=O)([O-])[O-].[Fe+2] [Fe(II) sulfate]
- LD50: 11 mg of Fe/kg of body weight
